Here are results for 14 compounds from PubChem BioAssay (NCI).

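Step 1: Grow cells in 96-well plates. Step 2: Expose to compound for 48 hours at 5 concentrations. Step 3: Interpolate endpoints linearly; if unreached, use highest concentration. The concentration for 50% growth inhibition is given as GI50. TGI: total growth inhibition.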 Bounds are passed on as bounds.

Common to all, as to test: DTP human tumour cell line panel, 48 h
The test system of test [1] is PC-3 prostate.
The subject of test [2] is CCRF-CEM leukemia.
For test [3], the system named is HCT-116 colon.
In test [4] the test system is HOP-92 NSCLC.
The subject of test [5] is OVCAR-4 ovarian.
Test [6] relates to NCI-H226 lung.
For test [7], the system named is EKVX NSCLC.
In test [8] the test system is MCF7 breast.
The test system of test [9] is RPMI-8226 leukemia.
The subject of test [10] is DU-145 prostate.

A word on the TGI: it is the concentration at which net growth stops. Lower therefore signals greater sensitivity of the cells. Turning to `O=C1Nc2c(Cl)cc(Cl)cc2/C1=N/N=C/c1ccco1`, the TGI in [1] was more than 100 µM; in test [2], more than 100 µM; in [3] it was more than 100 µM; in test [4], more than 100 µM; in [5] it was more than 100 µM; in test [6], 59.2 µM. Also, the TGI in [7] was 84.9 µM; in [8] it was more than 100 µM.
For the compound `O=[N+]([O-])c1nccn1CC(O)c1ccccc1` (stereo not drawn), the TGI in [2], in test [9], in test [4], in test [5], in test [6] and in [7] was more than 100 µM each time.
As to `CCOC(=O)c1ccc(-n2cnc(-c3ccc([N+](=O)[O-])cc3)c2)cc1`, the TGI in [1], in test [10], in test [2], in test [3], in [9] and in [6] was more than 100 µM each time. Also, the TGI in test [7] and in test [8] was more than 100 µM in each case.
Consider `CCOC(=O)C12CCCC1(O)N(NC(=O)OC)C(C)=C2C(=O)OC` (stereo not drawn), for which the TGI in test [2], in [3], in test [9], in test [4], in test [5] and in test [6] was more than 100 µM each time. For the same compound, the concentration for total growth inhibition (TGI) in test [7] is more than 100 µM.
As a reminder, the GI50 is the concentration giving 50% growth inhibition. As to `Oc1ccccc1-c1nn(CNc2ccc(Cl)cc2)c(=S)o1`, the GI50 is more than 100 µM in test [1]; more than 100 µM in test [2]; 18.2 µM in [3]; more than 100 µM in [9]; 88.8 µM in [4]; 14.1 µM in test [6]. For the same compound, the GI50 is more than 100 µM in [7] and 4.17 µM in [8]. Moreover, the total growth inhibition concentration (TGI) in test [1] was more than 100 µM; in test [2] it was more than 100 µM; in test [3] it was 51.4 µM; in test [9], more than 100 µM; in [4], more than 100 µM; in test [6] it was more than 100 µM. The TGI in test [7] and in test [8] was more than 100 µM throughout.
With `Cc1cccc(-c2nnc3s/c(=C\c4ccc(N(C)C)cc4)c(=O)n23)c1`, the total growth inhibition concentration (TGI) in test [2], in [3], in [9], in test [4], in test [5] and in [6] was more than 100 µM each time. For the same compound, the total growth inhibition concentration (TGI) in test [7] was more than 100 µM.
`O=C(CC1(O)C(=O)Nc2c(Cl)cc(Cl)cc21)c1ccccc1` (stereo not drawn): the TGI in [3], in [9], in test [4], in test [5], in [6] and in test [7] was more than 100 µM each time.
For `c1ccc(SC(Sc2ccccc2)=C2CCC2)cc1`, the TGI in test [2], in [3], in test [9], in test [4], in test [5] and in test [7] was more than 100 µM in each case.
Turning to `Nc1nc(=O)n(C2CCC(CO)O2)cc1F` (stereo not drawn), the TGI in test [2], in test [9], in test [4], in test [5], in test [6] and in test [7] was more than 100 µM each time.
With `CSC(=NC(=O)c1ccccc1Cl)SCCSC(=NC(=O)c1ccccc1Cl)SC`, the TGI in test [2], in [3], in [9], in [4], in [5] and in [6] was more than 100 µM throughout. Also, the TGI in [7] is more than 100 µM.
In the case of `CC1=CCC2CC1C(C(=O)c1c[nH]c3ccccc13)=NC2(C)C` (stereo not drawn), the TGI in test [1], in test [10], in test [2], in test [3], in [9] and in [5] was more than 100 µM in each case. In addition, the concentration for total growth inhibition (TGI) in test [6], in test [7] and in test [8] was more than 100 µM throughout.
Consider `CC1(C)N=C(N)N=C(N)N1c1ccc(CNC(=O)Nc2ccc(S(=O)(=O)F)c(Cl)c2)c(Cl)c1`, for which the GI50 in [1] is 0.0677 µM; in test [10] it was 0.76 µM; in test [2] it was 0.477 µM; in [3], 0.379 µM; in test [9] it was 1.43 µM; in test [4], 19.9 µM. In addition, the GI50 in test [5] was 4.57 µM; in test [6], 13.7 µM; in [8], 0.536 µM. For the same compound, the total growth inhibition concentration (TGI) in [1] was more than 100 µM; in [10] it was more than 100 µM; in test [2] it was more than 100 µM; in test [3], more than 100 µM; in [9] it was more than 100 µM; in [4], 97.5 µM. Besides, the TGI in test [5], in [6] and in test [8] was more than 100 µM throughout.
Regarding `CC(Oc1ccc2c(-c3ccc(Cl)cc3)cc(=O)oc2c1)C(=O)O` (stereo not drawn), the concentration for total growth inhibition (TGI) in test [2], in test [3], in test [4], in test [5], in test [6] and in test [7] was more than 100 µM throughout.
With `Cc1c(Cn2c(C)nc3c(C(=O)O)cc(N4CCOCC4)cc32)cccc1C(F)(F)F`, the GI50 in test [1] is 6.38 µM; in test [10], more than 92.9 µM; in [2], 44.3 µM; in [3], 42.1 µM; in test [9], 64.8 µM; in test [4] it was 14.1 µM. The GI50 was 42.4 µM in test [5], 67.2 µM in test [6] and 42.7 µM in test [8]. For the same compound, the TGI in test [1], in test [10], in test [2], in test [3], in test [9] and in test [4] was more than 100 µM each time. Besides, the TGI in test [5], in test [6] and in test [8] was more than 100 µM each time.
